Each block holds one compound with its values, some of them ahead of it. Activity calls are given as the source filed them. The calls are words filed in the database; no cut-off is given here.
What was measured:
[1] = Down regulation of XIAP expression in human H1299 cells at 0.1 to 30 uM after 24 hrs by Western blot analysis; type: functional, cell-based; conditions: NCI-H1299
[2] = target: T1, c-Jun N-terminal kinase, JNK (Homo sapiens) (UniProt P45983+P53779+P45984); experiment: Induction of JNK-mediated c-Jun phosphorylation in human H1299 cells at 5 to 10 uM after 24 hrs by Western blot analysis in presence of 100 ug/ml TRAIL; type: cell-based
NCI-H1299 [3] = experiment: Induction of apoptosis in human H1299 cells assessed as apoptotic cells at 10 uM after 48 hrs by annexinV/propidium iodide staining-based flow cytometric analysis in presence of 100 ug/ml TRAIL (reference value: 1.35%); type: functional
[4] = Down regulation of Bcl-Xl expression in human H1299 cells at 10 uM after 24 hrs by Western blot analysis in presence of 100 ug/ml TRAIL; type: functional, cell-based; conditions: NCI-H1299
NCI-H1299 [5] = experiment: Induction of apoptosis in human H1299 cells assessed as apoptotic cells at 10 uM after 48 hrs by annexinV/propidium iodide staining-based flow cytometric analysis (reference value: 1.35%); type: functional
NCI-H1299 [6] = experiment: Induction of TRAIL-mediated apoptosis in human H1299 cells assessed as caspase 8 activation at 5 to 10 uM after 24 hrs by fluorometric assay; type: functional, cell-based
[7] = Down regulation of cIAP1 expression in human H1299 cells at 10 uM after 24 hrs by Western blot analysis in presence of 100 ug/ml TRAIL; type: functional, cell-based; conditions: NCI-H1299
NCI-H1299 [8] = experiment: Induction of apoptosis in human H1299 cells assessed as apoptotic cells at 5 uM after 48 hrs by annexinV/propidium iodide staining-based flow cytometric analysis (reference value: 1.35%); type: functional
[9] = Down regulation of AKT-mediated survivin expression in human H1299 cells at 5 to 10 uM after 24 hrs by Western blot analysis; type: cell-based
[10] = Down regulation of XIAP expression in human H1299 cells at 5 to 10 uM after 24 hrs by Western blot analysis in presence of 100 ug/ml TRAIL; type: functional, cell-based; conditions: NCI-H1299
[11] = Down regulation of XIAP expression in human H1299 cells at 0.1 to 30 uM after 24 hrs by Western blot analysis in presence of 100 ug/ml TRAIL and PI3K inhibitor LY294002; type: functional, cell-based; conditions: NCI-H1299
[12] = Down regulation of AKT-mediated survivin expression in human H1299 cells at 5 to 10 uM after 24 hrs by Western blot analysis in presence of 100 ug/ml TRAIL; type: cell-based
[13] = Upregulation of CHOP in human H1299 cells at 10 uM after 24 hrs by Western blot analysis in presence of 100 ug/ml TRAIL and pretreated with 10 uM JNK inhibition SP600125; type: functional, cell-based; conditions: NCI-H1299
[14] = Down regulation of XIAP expression in human H1299 cells at 5 to 10 uM after 24 hrs by Western blot analysis; type: functional, cell-based; conditions: NCI-H1299
NCI-H1299 [15] = experiment: Induction of TRAIL-mediated apoptosis in human H1299 cells assessed as caspase 8 activation at 5 to 10 uM after 24 hrs by fluorometric assay in presence of pan-caspase inhibitor Z-VAD-FMK; type: functional, cell-based
H1299 [16] = experiment: Inhibition of Akt phosphorylation in human H1299 cells at 5 to 10 uM after 24 hrs by Western blot analysis; type: cell-based
[17] = Down regulation of cIAP2 expression in human H1299 cells at 10 uM after 24 hrs by Western blot analysis in presence of 100 ug/ml TRAIL; type: functional, cell-based; conditions: NCI-H1299
[18] = target: T1, c-Jun N-terminal kinase, JNK (Homo sapiens); experiment: Induction of JNK-mediated c-Jun phosphorylation in human H1299 cells at 5 to 10 uM after 24 hrs by Western blot analysis; type: cell-based
NCI-H1299 [19] = experiment: Induction of apoptosis in human H1299 cells assessed as apoptotic cells at 5 uM after 48 hrs by annexinV/propidium iodide staining-based flow cytometric analysis in presence of 100 ug/ml TRAIL (reference value: 1.35%); type: functional
[20] = target: T1, c-Jun N-terminal kinase, JNK (Homo sapiens); experiment: Induction of JNK-mediated CHOP protein expression in human H1299 cells after 24 hrs by Western blot analysis; type: cell-based
[21] = target: T1, c-Jun N-terminal kinase, JNK (Homo sapiens); experiment: Induction of JNK-mediated c-Jun phosphorylation in human H1299 cells at 10 uM for 30 mins cotreated with TRAIL by Western blot analysis pretreated with 10 uM JNK inhibitor SP600125 for 1 hr; type: cell-based
H1299 [22] = experiment: Inhibition of Akt phosphorylation in human H1299 cells at 5 to 10 uM after 24 hrs by Western blot analysis in presence of 100 ug/ml TRAIL; type: cell-based
NCI-H1299 [23] = experiment: Induction of DR5 protein expression in human H1299 cells after 24 hrs by Western blot analysis; type: functional, cell-based
H1299 [24] = experiment: Inhibition of Akt phosphorylation on human H1299 cells after 24 hrs by Western blot analysis; type: cell-based
H1299 [25] = experiment: Inhibition of Akt in human H1299 cells assessed as decrease in survivin expression after 24 hrs by Western blot analysis; type: cell-based
[26] = Down regulation of cIAP2 expression in human H1299 cells at 0.1 to 30 uM after 24 hrs by Western blot analysis; type: functional, cell-based; conditions: NCI-H1299
NCI-H1299 [27] = experiment: Induction of DR5 expression in human H1299 cells at 0.1 to 30 uM after 24 hrs by Western blot analysis; type: functional, cell-based
[28] = target: T1, c-Jun N-terminal kinase, JNK (Homo sapiens); experiment: Induction of JNK-mediated CHOP expression in human H1299 cells at 0.1 to 30 uM after 24 hrs by Western blot analysis; type: cell-based
[29] = Down regulation of cIAP2 expression in human H1299 cells at 0.1 to 30 uM after 24 hrs by Western blot analysis in presence of 100 ug/ml TRAIL and PI3K inhibitor LY294002; type: functional, cell-based; conditions: NCI-H1299

Activity [2]: Active
Activity [18]: Active
Activity [20]: Active
Activity [21]: Active
SMILES: Cc1ccc(Cl)cc1NC(=S)Nc1ccc(-n2nccc2C(F)(F)F)cc1
Activity [1]: Active
Activity (NCI-H1299 [3]): 39.4%
Activity [4]: Active
Activity (NCI-H1299 [5]): 3.25%
Activity (NCI-H1299 [6]): Active
Activity [7]: Active
Activity (NCI-H1299 [8]): 1.52%
Activity [9]: Active
Activity [10]: Active
Activity [11]: Active
Activity [12]: Active
Activity [13]: inactive
Activity [14]: Active
Activity (NCI-H1299 [15]): inactive
inhibition (H1299 [16]): Active
Activity [17]: Active
Activity (NCI-H1299 [19]): 6.59%
inhibition (H1299 [22]): Active
Activity (NCI-H1299 [23]): Active

Activity [28]: inactive
SMILES: O=c1cc(N2CCOCC2)oc2c(-c3ccccc3)cccc12
inhibition (H1299 [24]): Dose-dependent effect
inhibition (H1299 [25]): Dose-dependent effect
Activity [26]: Active
Activity (NCI-H1299 [27]): inactive
Activity [29]: Active

Reference: ChEMBL document CHEMBL2034916, “Thiourea compound AW00178 sensitizes human H1299 lung carcinoma cells to TRAIL-mediated apoptosis” (2012)
